Measurements from paper PMC11860023, “Synthesis and Characterization of Memantine-Loaded Niosomes for Enhanced Alzheimer’s Disease Targeting” (Pharmaceutics, 2025).
Converted amounts (≈) assume the structure as drawn. Marks after values point to notes of the source that are not given here.

Tests used:
[1] = system: differentiated SH-SY5Y cells exposed to amyloid beta 1−42 peptide; assay: Neuroprotection in the in vitro AD model (differentiated SH-SY5Y exposed to amyloid beta 1-42), MTT; format: cell-based, human; conditions: for concentration range of optimal neuroprotective activity: AD model, differentiated neuronal cultures; for increase of cell viability versus amyloid beta only control: derivative loaded into niosomal drug delivery system, 47 µg/mL, 24 h; for cell viability versus amyloid beta only control (neuroprotective effect): free compound 47 µg/mL, 10 µM amyloid beta 1−42
Method: (§1) The SH-SY5Y neuroblastoma cell line, frequently used as an in vitro model of Alzheimer’s disease, has been cultured to transform into mature neuron-like structures through differentiation with retinoic acid (RA). For this purpose, the SH-SY5Y neuroblastoma cell line was grown in a DMEM:F12 nutrient medium environment with 10% fetal bovine serum (FBS) growth factor, 1% Penicillin/streptomycin, and 5% CO2 at 37 °C. The nutrient medium was refreshed every three days, with half the volume changed. Cells were subcultured after treatment with trypsin/EDTA for 5 min. To differentiate SH-SY5Y cells, the medium containing 10 µM RA (DMEM:F12 + 15% FBS) was added. Five days after the addition of RA, the cells were washed three times with PBS and incubated in DMEM:F12. The differentiation of the cells was determined by cell cycle analysis using a flow cytometry system. […] Converted cell cultures were used as a negative control, and cell cultures with only amyloid beta were used as a positive control without adding the synthesized molecules. The viability rates in the in vitro AD model that we intended to create were analyzed with MTT cytotoxicity tests.
Differentiated SH-SY5Y cells were seeded into 96-well plates, with each well containing 100 μL of culture medium with 2 × 10^4 cells. […] At the end of the incubation period, 10 μL of MTT mixture was added to each well for MTT analysis. The mixture was gently stirred using a circular mixer for 1 min and then incubated in a CO2 incubator at 37 °C for 3–4 h. […] The culture medium was carefully aspirated from each compartment without disturbing the cell layer. Alternatively, before aspiration, the plate was centrifuged at 400× g for 10 min to settle non-adherent cells. Then, 100 μL of crystal solvent solution (DMSO) was added to each compartment, and the absorbance of each sample was measured at 570 nm using a microplate reader.
This peptide is instrumental in AD pathology and serves as a pertinent stressor for assessing the neuroprotective efficacy of potential therapeutic agents.
In the conducted in vitro studies, the neuroprotective effects of memantine derivatives encapsulated within a nanosomal drug delivery system were evaluated using the SH-SY5Y neuroblastoma cell line as a model for AD. The differentiated neuronal cultures were treated with memantine derivatives which were loaded into the niosomal drug delivery systems at a uniform concentration of 47 µg/mL across three independent experimental repeats.

[2] = Drug loading (encapsulation efficiency) of niosomes, UV at 236 nm after centrifugal filtration; format: physicochemical; conditions: Span60:cholesterol 2:1, drug 1 mg/mL
Method: The efficiency of MP1–4 encapsulation within the niosomes was evaluated by quantifying the unencapsulated MP1–4. This was achieved by centrifuging the niosomal mixtures at 4 °C for 20 min at a speed of 4000 rpm, utilizing an Amicon Ultra centrifuge filter unit (Millipore Merck, Darmstadt, DE). The optical density of the supernatant containing free MP1–4 was measured at a wavelength of 236 nm with a UV–Vis spectrophotometer (Eppendorf® 580R centrifuge, Hamburg, DE). By determining the concentration of the free drug in the supernatant, we were able to calculate the unknown amount of encapsulated drug. The encapsulation efficiency percentage was then computed based on the initial molecule concentration (Ci) used in the niosome preparation versus the concentration found post-centrifugation (Cf), as in the following equation:% Loading capacity = [(Ci − Cf)/Ci] × 100 (1)
The loading capacities of the synthesized memantine derivative compounds in the niosomal drug delivery system were examined in detail. In this study, loading efficiency was determined by centrifuging niosomal formulations using an Amicon Ultra centrifuge filter device (Millipore Merck, Burlington, MA, USA) at 4000 rpm for 20 min at 4 °C. The amount of free drug remaining was recorded using a UV–Vis spectrophotometer (Eppendorf® 580R centrifuge, Hamburg, DE). […] However, the loading capacity of the memantine derivative MP2 was determined to be 53%, which is below the desired capacity.

[3] = system: differentiated SH-SY5Y cells; assay: MTT cell viability test in differentiated SH-SY5Y cell cultures; format: cell-based, human; conditions: for cell viability at the highest concentration: 500 µg/mL; for IC50: Homo sapiens, read-out: IC50 (concentration required to achieve 50% cell viability), MTT
Method: Differentiated SH-SY5Y cells were seeded into 96-well plates, with each well containing 100 μL of culture medium with 2 × 10^4 cells. […] At the end of the incubation period, 10 μL of MTT mixture was added to each well for MTT analysis. The mixture was gently stirred using a circular mixer for 1 min and then incubated in a CO2 incubator at 37 °C for 3–4 h. […] The culture medium was carefully aspirated from each compartment without disturbing the cell layer. Alternatively, before aspiration, the plate was centrifuged at 400× g for 10 min to settle non-adherent cells. Then, 100 μL of crystal solvent solution (DMSO) was added to each compartment, and the absorbance of each sample was measured at 570 nm using a microplate reader [18].

[4] = In vitro drug release from niosomes (dialysis membrane, PBS-SDS, 37 °C); format: physicochemical; conditions: for Higuchi coefficient (kH): release from niosomal carriers, Higuchi model
Method: To investigate the drug’s release profile from the niosomes, an in vitro release study was performed. For the release study, we used loading rates calculated by a drug loading study. A 2 mL aliquot of the optimized niosomal formulation was enclosed within a dialysis membrane (with a 12 kDa molecular weight cut-off) and incubated for 72 h at 37 °C. This incubation occurred in a stirring environment within 50 mL of a release solution composed of phosphate-buffered saline with 0.5% sodium dodecyl sulfate (PBS-SDS) by w/v. Samples of 1 mL were systematically withdrawn at specific intervals (1, 2, 4, 8, and 24 h) from the release medium, with each withdrawal immediately compensated for by an equivalent volume of fresh release medium. The optical density of these samples was measured at 236 nm using a spectrophotometer. From these measurements, the quantity of memantine released was calculated, and the release percentages were reported as a proportion of the total drug release.
Drug release capacities with MP1–4 were determined using the niosomal release systems generated. […] This feature offers an important advantage in terms of controlled drug release. The drug release study was carried out by measuring the absorbance using a spectrophotometer on samples taken at specific time intervals (1, 2, 4, 8, and 24 h). These measurements were carried out at the max peak of the drugs, and the data obtained were used to determine the amount of memantine derivative drug released. The results present the percentages of the released content as a percentage of total release. […] It was also concluded that a slow and proportional release occurred over the indicated time period, indicating the potential for controlled drug release (Figure 6).

[5] = system: human fibroblast (HDFa) cell cultures; assay: Nuclear abnormality / micronucleus analysis by Hoechst 33258 staining in HDFa cells; format: cell-based; conditions: 24 h, 125 μg/mL
Method: (§2) The human fibroblast cell line (ATCC® PCS-201-012™ Manassas, VA, USA) was propagated in DMEM culture medium enriched with a 1% mixture of penicillin/streptomycin antibiotics and 10% fetal bovine serum (FBS) and maintained in an atmosphere containing 5% CO2 at a temperature of 37 °C until they reached full confluence. To identify nuclei alterations, Hoechst 33258 fluorescent dye was employed. […] Following the treatment period, the cells were stabilized using 4% paraformaldehyde at a cool temperature of 4 °C for 30 min. The cells were then rinsed with PBS and exposed to 1 µM of the Hoechst 33258 dye for a brief duration of 5 min [15]. After the staining process, the cells were examined and imaged using a Leica® DM IL LED (Leica Microsystems, Wetzlar, DE) fluorescent microscope.
Figure 4 Analysis of the genotoxic properties of synthesized memantine derivatives (MP1–4) in cultured human fibroblast cells (HDFa) using Hoechst 33258 fluorescent staining of cell nuclei. (A) MP1, (B) MP2, (C), MP3 and (D) MP4.

[6] = system: bEnd.3 cells / SH-SY5Y disease model; assay: In vitro BBB permeability test, transwell bEnd.3 monolayer over SH-SY5Y disease model, viability readout; format: cell-based; conditions: carrier 0.1 mg/mL loaded with 47 µg/mL vs non-loaded 47 µg/mL, 24 h
Method: In vitro BBB models were created using a transwell culture system for BBB permeability analysis. Initially, bEnd.3 cells were seeded inside the membrane of the plate at a starting density of 1 × 10^5 cells/well and cultured for about a week in DMEM growth medium supplemented with 10% fetal bovine serum. Subsequently, the upper compartments containing bEnd.3 monolayers were transferred to plates containing SH-SY5Y cells coated at the bottom of the lower compartments. Then, carrier particles were added to the apical upper chambers of the BBB models at a final concentration of 0.1 mg/mL. Approximately 24 h after incubation, viability analyses were conducted on the SH-SY5Y disease model formed in the lower layer to determine BBB permeability capacities. A schematic diagram of the method is shown below (Figure 2). Prior to starting the experimental procedures, the bEnd.3 cells were cultured until 90–100% confluency was achieved, as this confluency level is necessary for tight junction formation and optimal barrier properties. The integrity of the cell monolayer was then evaluated under an inverted microscope to confirm confluence and uniform cell distribution, ensuring the reliability of the in vitro BBB model.
In vitro BBB permeability analyses were conducted by establishing in vitro transwell BBB models, within which the effects of drug-loaded MP1–4 were studied. […]

[7] = system: human fibroblast cells (HDFa); assay: MTT cell viability assay of MP1–4 in cultured human fibroblast cells (HDFa); format: cell-based; conditions: at each concentration applied
Method: as §2
The human fibroblast cell line HDFa was cultured and tested for toxicity with 4 different memantine derivatives in 48-well plates. The experiments, conducted in triplicate, included both treated and untreated (negative control) cell cultures. Post-treatment, the cells were incubated with an MTT mixture to assess cell viability, followed by the addition of a crystal solvent solution (DMSO) to dissolve formazan crystals formed in viable cells. The absorbance of each sample was measured to evaluate the cytotoxic effects of the memantine derivatives on the fibroblast cells. […]

SH-SY5Y cells = assay: Cell cycle distribution of SH-SY5Y cells by flow cytometry after retinoic acid differentiation; format: cell-based, human; conditions: all-trans retinoic acid 10 µM, 11 days
Method: as §1
To confirm successful differentiation, flow cytometry was utilized to analyze the cell cycle distribution within the cultures.

Drug Loading (%) / encapsulation efficiency [2] [%]	IC50 [3] [µg/mL]	drug release behaviour from niosomal release systems ([4]; sampling at 1, 2, 4, 8 and 24 h)	Structure (SMILES)	concentration range of optimal neuroprotective activity [1] [µg/mL]	increase of cell viability versus amyloid beta only control [1]	cell viability versus amyloid beta only control (neuroprotective effect) [1]	cell viability at the highest concentration [3]	Higuchi coefficient (kH) [4]	Mean NA/1000 Cells ± SD [5]	Nuclear Abnormalities (NA) Total Lobbed [5]	Nuclear Abnormalities (NA) Total MN [5]	Nuclear Abnormalities (NA) Total Notched [5]	effect on cell viability / neuroprotection of niosome-loaded versus non-loaded derivative [6]	decrease of cell viability [7] [%]	Cell Population (%) G1 Phase (SH-SY5Y cells) [%]	Cell Population (%) G2 Phase (SH-SY5Y cells) [%]	Cell Population (%) S Phase (SH-SY5Y cells) [%]
≥ 85	5620 (≈ 18400 µM)	most optimal drug release	CCCC(CCC)C(=O)NC12CC3CC(C)(CC(C)(C3)C1)C2 [MP1]	15.6 to 62.5	approximately 40%	significantly enhanced cell viability	relatively higher cell viability	10.36	0.013 ± 0.001 ^a	3	5	5	higher effect on cell viability and a significant increase in neuroprotective properties				
53	457 (≈ 1400 µM)		CC12CC3CC(C)(C1)CC(NC(=O)CCCc1ccccc1)(C3)C2 [MP2]	31.25 to 125	approximately 40%	significantly enhanced cell viability	relatively higher cell viability	7.55	0.012 ± 0.002 ^a	5	4	3					
≥ 85	659 (≈ 1930 µM)		CC12CC3CC(C)(C1)CC(NC(=O)/C=C/c1ccc(O)c(O)c1)(C3)C2 [MP4]		approximately 40%	significantly enhanced cell viability	significantly reduced	10.82	0.013 ± 0.003 ^a	4	5	4	higher effect on cell viability and a significant increase in neuroprotective properties	~40			
			CC1=C(/C=C/C(C)=C/C=C/C(C)=C/C(=O)O)C(C)(C)CCC1 [RA Treated, all-trans retinoic acid]												72.45 ± 3.78	5.34 ± 0.17	18.65 ± 3.23
